Laboratory results reported in PMC7126369, “Identification of a selective inhibitor of IDH2/R140Q enzyme that induces cellular differentiation in leukemia cells” (Cell Communication and Signaling : CCS, 2020).
Changes are numbered by the printed parent chain. Where two headings read alike, the source gives them in different places.

Columns and labels:
TF-1(IDH2/R140Q) cells [1] = assay: D-2-HG assay (LC-MS) in cells; format: cell-based; conditions: 72 h, 3 days of treatment, read-out: IC50 of intracellular D-2-HG production
Experimental: (§1) TF-1(IDH2R140Q) cells were seeded in a 12-well plate at a density of 5 × 10^4/mL. The test compound was added in different concentration gradients (3000, 1000, 333.33, 111.11, 37.04, 12.35, 4.12, and 1.37 nM). The cells were collected after 3 days of treatment. The cell pellet was suspended in 100 μL 80% aqueous methanol solution, containing 1 μg/mL Phenacetin as the internal standard. The cell lysate was centrifuged at 13,000 rpm for 10 min. The precipitate was removed at 4 °C and stored in an − 80 °C refrigerator. Before injection, the cell lysate was centrifuged again at 13,000 rpm for 10 min. The supernatant was transferred into the liquid phase cannula for injection. The test instrument was a Q Exactive™ Plus-Orbitrap™ MS, Thermo Scientific benchtop quadrupole-orbitrap high resolution mass spectrometer. The column used was Waters™ ACQUITY™ UPLC HSS-T3–1.8 μm, […] × 100 mm (part No. 186003539). The mobile phase was: Phase A, 0.1% aqueous formic acid (chromatographically pure); and Phase B, acetonitrile (chromatographically pure). The gradients were set as 1% B for 1.5 min → 70% B for 0.5 min → 1% B for 1.5 min → 0% B. The column was re-equilibrated for 2 min between injections. A temperature of 40 °C was set for the column with a flow rate of 0.2 mL/min. […] D-2-HG and Phenacetin were monitored by mass transitions of m/z 147 → m/z 129 and m/z 178 → m/z 147, respectively. […]

IDH1/WT = molecular target: T1, IDH1/WT (Homo sapiens, UniProt O75874); assay: Enzymatic assay, IDH1/WT; format: biochemical; conditions: incubation time 16 h, read-out: IC50 for isocitrate to α-KG
T1 construct: FLAG (C); purchased BPS Bioscience
T1 sequence (O75874 whole entry): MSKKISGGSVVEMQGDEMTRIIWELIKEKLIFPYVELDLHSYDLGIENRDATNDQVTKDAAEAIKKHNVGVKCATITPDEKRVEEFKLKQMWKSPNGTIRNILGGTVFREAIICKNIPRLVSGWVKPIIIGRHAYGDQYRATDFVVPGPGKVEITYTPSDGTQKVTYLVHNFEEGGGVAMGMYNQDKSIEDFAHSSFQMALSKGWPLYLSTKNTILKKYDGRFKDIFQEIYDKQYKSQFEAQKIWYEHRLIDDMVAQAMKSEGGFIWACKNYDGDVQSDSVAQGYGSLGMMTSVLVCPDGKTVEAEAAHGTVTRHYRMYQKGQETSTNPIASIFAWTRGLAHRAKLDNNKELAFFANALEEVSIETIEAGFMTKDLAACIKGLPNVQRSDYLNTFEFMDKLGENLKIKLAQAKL
Experimental: A mixture of the IDH1/WT (0.08 μg/mL) and NADP (50 μM) was prepared in the assay buffer [10 mM MgCl2, 150 mM NaCl, 20 mM Tris (pH 7.5), 2 mM β-mercaptoethanol, and 0.05% BSA], after which compound dilutions were added and incubated for 16 h at 25 °C. Other operations were referred to the assay of IDH2/WT.

IDH2/WT = molecular target: T2, IDH2/WT (Homo sapiens, UniProt P48735); assay: Diaphorase/resazurin coupled NADPH production enzymatic assay, IDH2/WT; format: biochemical; conditions: incubation time 16 h, read-out: IC50 for isocitrate to α-KG
T2 construct: FLAG (C); purchased BPS Bioscience
T2 sequence (P48735 40-452): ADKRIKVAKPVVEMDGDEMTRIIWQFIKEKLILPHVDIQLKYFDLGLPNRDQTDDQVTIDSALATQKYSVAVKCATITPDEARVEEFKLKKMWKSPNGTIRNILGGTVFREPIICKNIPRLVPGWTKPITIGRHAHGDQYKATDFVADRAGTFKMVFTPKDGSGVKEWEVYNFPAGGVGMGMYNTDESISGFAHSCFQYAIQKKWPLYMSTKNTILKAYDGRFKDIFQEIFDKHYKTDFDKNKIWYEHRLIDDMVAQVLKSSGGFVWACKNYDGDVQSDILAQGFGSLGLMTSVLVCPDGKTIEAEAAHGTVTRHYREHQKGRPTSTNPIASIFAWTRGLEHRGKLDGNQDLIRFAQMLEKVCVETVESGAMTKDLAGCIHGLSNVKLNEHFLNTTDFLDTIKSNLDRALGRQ
Experimental: (§2) The compounds were dissolved to a concentration of 20 mM in pure DMSO. Diaphorase/resazurin coupled NADPH deletion or production assays were used to measure the activity of IDH mutants or wild-type IDH (IDH/WT) enzymes. […] Afterwards, 20 μL of the gradient concentrations of compound dilution were added to this mixture and incubated at 25 °C for 1 h or 16 h. […] Further, 20 μL of 4X assay buffer containing 0.6 mM isocitrate was used for enzymatic reaction.

TF-1(WT) cells = assay: GM-CSF-independent proliferation assay; format: cell-based; conditions: 3 μM, 7 days
Experimental: (§3) The cell proliferation was detected by CellTiter 96® AQueous One Solution Cell Proliferation Assay Kit (Promega) according to the protocol. Briefly, TF-1(WT) and TF-1(IDH2/R140Q) cells were cultured in complete growth medium that is supplemented with 2 ng/mL GM-CSF. Prior to the proliferation assay, the cells were washed three times with PBS to eliminate GM-CSF. These cells were transferred to 96 well plates (5000 cells per well), with each well containing 100 μL growth medium without GM-CSF, and treated with CP-17 (1 or 3 μM) for 7 days. Then 20 μL per well of CellTiter 96® AQueous One Solution Reagent were added to each well. The plate was incubated at 37 °C for 4 h in a humidified, 5% CO2 atmosphere, and then the absorbance at 490 nm was recorded using a 96-well plate reader. Three independent repetitive experiments were carried out and analyzed by Graphpad Prism 5.0. […] T-test was used to compare the difference significance with control group and the data meet the assumption of the test.

TF-1(IDH2/R140Q) cells [2] = assay: GM-CSF-independent proliferation assay; format: cell-based; conditions: 3 μM, 7 days
Experimental: as §3

IDH1/R132H = molecular target: T3, IDH1/R132H (Homo sapiens, UniProt O75874, R132H); assay: Enzymatic assay, IDH1/R132H; format: biochemical; conditions: incubation time 16 h, read-out: IC50 for α-KG reduction
T3 construct: FLAG (C); purchased BPS Bioscience
T3 sequence (O75874 whole entry R132H): as the sequence (O75874 whole entry) above, with R132H counted along it
Experimental: Analogously, a mixture of the IDH1/R132H enzyme (0.2 μg/mL) and NADPH (30 μM) was prepared in the assay buffer [10 mM MgCl2, 150 mM NaCl, 20 mM Tris-Cl (pH 7.5), 0.05% BSA, and 2 mM β-mercaptoethanol], after which compound dilutions were added and incubated for 16 h at 25 °C. The activity was measured using the same method as for IDH2/R140Q.

TF-1(IDH2/R140Q) cells [3] = assay: Histone methylation assay (western blot); format: cell-based; conditions: 1 and 3 μM, 7 days
Experimental: TF-1(WT) and TF-1(IDH2/R140Q) cells were treated with CP-17 (1 or 3 μM) in the presence of recombinant human GM-CSF for 7 days and then lysed and evaluated for the expression of H3K9me3, H3K4me3, H3K27me3, and H3 with specific antibodies by western blot. The total amount of histone H3 was used as the loading control. Three independent repetitive experiments were carried out.

IDH2/R140Q = molecular target: T4, IDH2/R140Q (Homo sapiens, UniProt P48735, R140Q); assay: Diaphorase/resazurin coupled NADPH depletion enzymatic assay, IDH2/R140Q homodimer; format: biochemical; conditions: read-out: IC50 for α-KG reduction
T4 construct: FLAG (C); purchased BPS Bioscience
T4 sequence (P48735 40-452 R140Q): T2 sequence (P48735 40-452) with R101Q
Experimental: as §2

TF-1(IDH2/R140Q) cells [4] = assay: EPO-induced differentiation assay; format: cell-based; conditions: 1 μM, 7 days
Experimental: TF-1(WT) and TF-1(IDH2/R140Q) cells were washed three times by PBS to remove GM-CSF and treated with CP-17 (1 or 3 μM) and 5 ng/mL EPO for 7 days.
as §1, with “pure).” for “pure). The gradients were set as 1% B for 1.5 min → 70% B for 0.5 min → 1% B for 1.5 min → 0% B. The column was re-equilibrated for 2 min between injections. A temperature of 40 °C was set for the column with a flow rate of 0.2 mL/min.”

[5] = system: AML patients carrying mutant IDH2; design: method as in PMID 29346478, PMID 29346477; conditions: patients responding to Enasidenib; cited from earlier work

| Compound | IC50 (TF-1(IDH2/R140Q) cells [1]) [nM] | IC50 (IDH1/WT) [nM] | IC50 (IDH2/WT) [nM] | Proliferation (TF-1(WT) cells) | GM-CSF-independent growth (TF-1(IDH2/R140Q) cells [2]) | IC50 (IDH1/R132H) [nM] | Histone methylation (H3K4me3, H3K9me3, H3K27me3) (TF-1(IDH2/R140Q) cells [3]) | IC50 (IDH2/R140Q; incubation time 1 h) [nM] | IC50 (IDH2/R140Q; incubation time 16 h) [nM] | EPO-induced differentiation (color change, hemoglobin γ expression) (TF-1(IDH2/R140Q) cells [4]) | Patients who develop differentiation syndrome [5] [%] |
| --- | --- | --- | --- | --- | --- | --- | --- | --- | --- | --- | --- |
| Cc1ccc(Cl)cc1NC(=O)Nc1cc(NC(=O)c2ccccc2)ccc1N1CCCC1 [CP-17, N-(3-(3-(5-chloro-2-methylphenyl)ureido)-4-(pyrrolidin-1-yl)phenyl)benzamide] | 141 | > 5000 | 2270 | no obvious effect | significantly inhibited | > 5000 | dose-dependent decrease in histone methylation | 99.9 | 40.8 | restored the EPO-induced color change and hemoglobin γ expression |  |
| CC(C)(O)CNc1nc(Nc2ccnc(C(F)(F)F)c2)nc(-c2cccc(C(F)(F)F)n2)n1 [Enasidenib] |  |  |  |  |  |  |  |  |  |  | 11.7 |
